Experimental data from ChEMBL document CHEMBL3045354, “Synthesis, molecular modeling, and biological evaluation of 1,2,4-triazole derivatives containing pyridine as potential anti-tumor agents” (Med Chem Res, 2013).
The source made the active and inactive calls. The calls are words filed in the database; no cut-off is given here.

Assays:
MCF7 = experiment: Antiproliferative activity against Homo sapiens (human) MCF7 cells assessed as growth inhibition after 48 hr by MTT assay; conditions: MCF7, 48 h
HepG2 = experiment: Antiproliferative activity against Homo sapiens (human) HepG2 cells assessed as growth inhibition after 48 hr by MTT assay; conditions: HepG2, 48 h
HCT-116 [1] = experiment: Antiproliferative activity against Homo sapiens (human) HCT116 cells assessed as growth inhibition after 48 hr by MTT assay; conditions: HCT-116, 48 h
HCT-116 [2] = experiment: Induction of apoptosis in Homo sapiens (human) HCT116 cells assessed as increase in cleaved caspase-3 level at 0.5 to 8 uM by Western blot analysis; type: functional, cell-based
HCT-116 [3] = experiment: Induction of apoptosis in Homo sapiens (human) HCT116 cells assessed as viable cells at 8 uM after 24 hr by Annexin V-FITC/PI staining based flow cytometry (reference value: 92.80%); type: functional; conditions: HCT-116, 24 h, read-out: Activity
HCT-116 [4] = experiment: Induction of apoptosis in Homo sapiens (human) HCT116 cells assessed as necrotic cells at 8 uM after 24 hr by Annexin V-FITC/PI staining based flow cytometry (reference value: 0.60%); type: functional
HCT-116 [5] = experiment: Induction of apoptosis in Homo sapiens (human) HCT116 cells assessed as early apoptotic cells at 2 uM after 24 hr by Annexin V-FITC/PI staining based flow cytometry (reference value: 3.73%); type: functional
HCT-116 [6] = experiment: Induction of apoptosis in Homo sapiens (human) HCT116 cells assessed as viable cells at 0.5 uM after 24 hr by Annexin V-FITC/PI staining based flow cytometry (reference value: 92.80%); type: functional; conditions: HCT-116, 24 h, read-out: Activity
HCT-116 [7] = experiment: Induction of apoptosis in Homo sapiens (human) HCT116 cells assessed as early apoptotic cells at 8 uM after 24 hr by Annexin V-FITC/PI staining based flow cytometry (reference value: 3.73%); type: functional
HCT-116 [8] = experiment: Induction of apoptosis in Homo sapiens (human) HCT116 cells assessed as early apoptotic cells at 0.5 uM after 24 hr by Annexin V-FITC/PI staining based flow cytometry (reference value: 3.73%); type: functional
HCT-116 [9] = experiment: Induction of apoptosis in Homo sapiens (human) HCT116 cells assessed as PARP cleavage at 0.5 to 8 uM by Western blot analysis; type: functional, cell-based
HCT-116 [10] = experiment: Induction of apoptosis in Homo sapiens (human) HCT116 cells assessed as necrotic cells at 0.5 uM after 24 hr by Annexin V-FITC/PI staining based flow cytometry (reference value: 0.60%); type: functional
HCT-116 [11] = experiment: Induction of apoptosis in Homo sapiens (human) HCT116 cells assessed as late apoptotic cells at 0.5 uM after 24 hr by Annexin V-FITC/PI staining based flow cytometry (reference value: 2.87%); type: functional
HCT-116 [12] = experiment: Induction of apoptosis in Homo sapiens (human) HCT116 cells assessed as late apoptotic cells at 8 uM after 24 hr by Annexin V-FITC/PI staining based flow cytometry (reference value: 2.87%); type: functional
HCT-116 [13] = experiment: Induction of apoptosis in Homo sapiens (human) HCT116 cells assessed as viable cells at 2 uM after 24 hr by Annexin V-FITC/PI staining based flow cytometry (reference value: 92.80%); type: functional; conditions: HCT-116, 24 h, read-out: Activity
HCT-116 [14] = experiment: Induction of apoptosis in Homo sapiens (human) HCT116 cells assessed as necrotic cells at 2 uM after 24 hr by Annexin V-FITC/PI staining based flow cytometry (reference value: 0.60%); type: functional
HCT-116 [15] = experiment: Induction of apoptosis in Homo sapiens (human) HCT116 cells assessed as late apoptotic cells at 2 uM after 24 hr by Annexin V-FITC/PI staining based flow cytometry (reference value: 2.87%); type: functional

`O=C(CSc1nnc(-c2ccncc2)n1-c1ccccc1)N/N=C/c1ccccc1O` was tested, and the IC50 (MCF7) was 10 µM, the IC50 (HepG2) was 11.3 µM and the IC50 (HCT-116 [1]) was 7.06 µM.

For `Fc1ccccc1CSc1nnc(-c2ccncc2)n1-c1ccccc1`, the IC50 (MCF7) was greater than 50 µM, the IC50 (HepG2) was greater than 50 µM and the IC50 (HCT-116 [1]) was 12 µM.

`Clc1cccc(CSc2nnc(-c3ccncc3)n2-c2ccccc2)c1` was tested, and the IC50 (MCF7) was 10.5 µM, the IC50 (HepG2) was 11.2 µM and the IC50 (HCT-116 [1]) was 9.82 µM.

Compound `O=[N+]([O-])c1ccccc1CSc1nnc(-c2ccncc2)n1-c1ccccc1` has an IC50 (MCF7) greater than 50 µM, an IC50 (HepG2) greater than 50 µM and an IC50 (HCT-116 [1]) greater than 50 µM.

Work on `O=C(CSc1nnc(-c2ccncc2)n1-c1ccccc1)N/N=C/c1ccccc1` yielded an IC50 (MCF7) of 23.6 µM, an IC50 (HepG2) of 18.6 µM and an IC50 (HCT-116 [1]) of 14.7 µM.

`Fc1cccc(F)c1CSc1nnc(-c2ccncc2)n1-c1ccccc1` gave an IC50 (MCF7) greater than 50 µM, an IC50 (HepG2) greater than 50 µM and an IC50 (HCT-116 [1]) of 22.1 µM.

`O=C(CSc1nnc(-c2ccncc2)n1-c1ccccc1)N/N=C/c1ccc([N+](=O)[O-])cc1` showed an IC50 (MCF7) of 15.3 µM, an IC50 (HepG2) of 15.9 µM and an IC50 (HCT-116 [1]) of 10.2 µM.

Compound `Brc1ccc(CSc2nnc(-c3ccncc3)n2-c2ccccc2)cc1` has an IC50 (MCF7) of 12.6 µM, an IC50 (HepG2) of 12.9 µM and an IC50 (HCT-116 [1]) of 11.1 µM.

In the case of `Fc1ccc(CSc2nnc(-c3ccncc3)n2-c2ccccc2)cc1`, the IC50 (MCF7) is reported as 21.1 µM, the IC50 (HepG2) is reported as 15.6 µM and the IC50 (HCT-116 [1]) is reported as 12.8 µM.

With `O=[N+]([O-])c1cccc(CSc2nnc(-c3ccncc3)n2-c2ccccc2)c1` the IC50 (MCF7) was 18.3 µM, the IC50 (HepG2) was 22 µM and the IC50 (HCT-116 [1]) was 19.8 µM.

`Brc1ccccc1CSc1nnc(-c2ccncc2)n1-c1ccccc1` was tested, and the IC50 (MCF7) was 16.1 µM, the IC50 (HepG2) was 17.1 µM and the IC50 (HCT-116 [1]) was 20.2 µM.

In the case of `O=C(CSc1nnc(-c2ccncc2)n1-c1ccccc1)N/N=C/c1cc(Br)ccc1O`, the Activity (HCT-116 [2]) is reported as “Active”, the viability at 8 µM (HCT-116 [3]) is reported as 31.6% and the IC50 (MCF7) is reported as 6.46 µM. For the same compound, the Activity (HCT-116 [4]) was 3.04%, the Activity (HCT-116 [5]) was 18.85% and the viability at 0.5 µM (HCT-116 [6]) was 90%. The Activity (HCT-116 [7]) was 27.35%, the Activity (HCT-116 [8]) was 5.99% and the Activity (HCT-116 [9]) was “Active”. For the same compound, the IC50 (HepG2) was 4.39 µM, the Activity (HCT-116 [10]) was 0.72% and the Activity (HCT-116 [11]) was 3.27%. The Activity (HCT-116 [12]) was 38.01%, the viability at 2 µM (HCT-116 [13]) was 86.2% and the Activity (HCT-116 [14]) was 2.44%. It also gave an IC50 (HCT-116 [1]) of 1.99 µM and an Activity (HCT-116 [15]) of 12.47%.

Work on `Clc1ccccc1CSc1nnc(-c2ccncc2)n1-c1ccccc1` yielded an IC50 (MCF7) of 18.1 µM, an IC50 (HepG2) of 15.7 µM and an IC50 (HCT-116 [1]) of 13.8 µM.

`O=C(CSc1nnc(-c2ccncc2)n1-c1ccccc1)N/N=C/c1ccc(F)cc1` gave an IC50 (MCF7) of 12.3 µM, an IC50 (HepG2) of 9.33 µM and an IC50 (HCT-116 [1]) of 7.04 µM.

`Clc1ccc(CSc2nnc(-c3ccncc3)n2-c2ccccc2)cc1` was tested, and the IC50 (MCF7) was 13.3 µM, the IC50 (HepG2) was 16.9 µM and the IC50 (HCT-116 [1]) was 10.7 µM.

In the case of `Fc1ccc(CSc2nnc(-c3ccncc3)n2-c2ccccc2)c(F)c1`, the IC50 (MCF7) is reported as 14.1 µM, the IC50 (HepG2) is reported as 10.2 µM and the IC50 (HCT-116 [1]) is reported as 11.4 µM.

Compound `O=C(CSc1nnc(-c2ccncc2)n1-c1ccccc1)N/N=C/c1ccc(O)cc1` has an IC50 (MCF7) greater than 50 µM, an IC50 (HepG2) greater than 50 µM and an IC50 (HCT-116 [1]) greater than 50 µM.

Work on `O=C(CSc1nnc(-c2ccncc2)n1-c1ccccc1)N/N=C/c1cc(Br)cc(Br)c1O` yielded an IC50 (MCF7) of 8.44 µM, an IC50 (HepG2) of 7.59 µM and an IC50 (HCT-116 [1]) of 4.5 µM.

Compound `COc1ccc(/C=N/NC(=O)CSc2nnc(-c3ccncc3)n2-c2ccccc2)cc1` has an IC50 (MCF7) of 23.7 µM, an IC50 (HepG2) of 27.1 µM and an IC50 (HCT-116 [1]) of 19.2 µM.

For `O=C(CSc1nnc(-c2ccncc2)n1-c1ccccc1)N/N=C/c1ccc(Br)cc1`, the IC50 (MCF7) was 7.04 µM, the IC50 (HepG2) was 5.99 µM and the IC50 (HCT-116 [1]) was 4.5 µM.

With `Brc1cccc(CSc2nnc(-c3ccncc3)n2-c2ccccc2)c1` the Activity (HCT-116 [2]) was “Active”, the viability at 8 µM (HCT-116 [3]) was 50.4% and the IC50 (MCF7) was 10 µM. The Activity (HCT-116 [4]) was 5.59%, the Activity (HCT-116 [5]) was 11.39% and the viability at 0.5 µM (HCT-116 [6]) was 88.2%. For the same compound, the Activity (HCT-116 [7]) was 12.3%, the Activity (HCT-116 [8]) was 8.24% and the Activity (HCT-116 [9]) was “Active”. For the same compound, the IC50 (HepG2) was 7.04 µM, the Activity (HCT-116 [10]) was 0.28% and the Activity (HCT-116 [11]) was 3.24%. For the same compound, the Activity (HCT-116 [12]) was 31.69%, the viability at 2 µM (HCT-116 [13]) was 78.3% and the Activity (HCT-116 [14]) was 1.08%. The IC50 (HCT-116 [1]) was 8.17 µM and the Activity (HCT-116 [15]) was 9.25%.

In the case of `O=C(CSc1nnc(-c2ccncc2)n1-c1ccccc1)N/N=C/c1ccc(O)c(O)c1`, the IC50 (MCF7) is reported as 19.7 µM, the IC50 (HepG2) is reported as 16.9 µM and the IC50 (HCT-116 [1]) is reported as 14.7 µM.

`c1ccc(CSc2nnc(-c3ccncc3)n2-c2ccccc2)cc1` showed an IC50 (MCF7) of 22.4 µM, an IC50 (HepG2) of 12.9 µM and an IC50 (HCT-116 [1]) of 16.9 µM.

`O=C(CSc1nnc(-c2ccncc2)n1-c1ccccc1)N/N=C/c1ccc(Cl)cc1` was tested, and the IC50 (MCF7) was 9.93 µM, the IC50 (HepG2) was 11 µM and the IC50 (HCT-116 [1]) was 5.74 µM.

In the case of `O=C(CSc1nnc(-c2ccncc2)n1-c1ccccc1)N/N=C/c1cccc(F)c1`, the IC50 (MCF7) is reported as greater than 50 µM, the IC50 (HepG2) is reported as 24.4 µM and the IC50 (HCT-116 [1]) is reported as greater than 50 µM.

In the case of `O=C(CSc1nnc(-c2ccncc2)n1-c1ccccc1)N/N=C/C=C/c1ccccc1`, the IC50 (MCF7) is reported as 11.2 µM, the IC50 (HepG2) is reported as 8.28 µM and the IC50 (HCT-116 [1]) is reported as 6.15 µM.

`O=C(CSc1nnc(-c2ccncc2)n1-c1ccccc1)N/N=C/c1ccccc1F` gave an IC50 (MCF7) of 22.4 µM, an IC50 (HepG2) of 15.2 µM and an IC50 (HCT-116 [1]) of 18 µM.

With `O=[N+]([O-])c1ccc(CSc2nnc(-c3ccncc3)n2-c2ccccc2)cc1` the IC50 (MCF7) was 22.8 µM, the IC50 (HepG2) was greater than 50 µM and the IC50 (HCT-116 [1]) was 23.8 µM.
